Reference: publication PMC9234962, “Optimization of Peptide Linker-Based Fluorescent Ligands for the Histamine H1 Receptor” (Journal of Medicinal Chemistry, 2022)
Square brackets hold non-standard residues; d marks the D form. Peptide text beside a SMILES is read from it. * marks the point of attachment. X1 = O=C(COc1ccc(/C=C/C2=[N+]3C(=Cc4ccc(-c5cccs5)n4[B-]3(F)F)C=C2)cc1)*; Propanoyl(3-Pip(4-O-2-BnPh)) = O=C(CCN1CCC(Oc2ccccc2Cc2ccccc2)CC1)*; βAla = NCCC(=O)O

Target: Nluc-H1R (Homo sapiens, UniProt P35367)
Sequence (P35367 whole entry): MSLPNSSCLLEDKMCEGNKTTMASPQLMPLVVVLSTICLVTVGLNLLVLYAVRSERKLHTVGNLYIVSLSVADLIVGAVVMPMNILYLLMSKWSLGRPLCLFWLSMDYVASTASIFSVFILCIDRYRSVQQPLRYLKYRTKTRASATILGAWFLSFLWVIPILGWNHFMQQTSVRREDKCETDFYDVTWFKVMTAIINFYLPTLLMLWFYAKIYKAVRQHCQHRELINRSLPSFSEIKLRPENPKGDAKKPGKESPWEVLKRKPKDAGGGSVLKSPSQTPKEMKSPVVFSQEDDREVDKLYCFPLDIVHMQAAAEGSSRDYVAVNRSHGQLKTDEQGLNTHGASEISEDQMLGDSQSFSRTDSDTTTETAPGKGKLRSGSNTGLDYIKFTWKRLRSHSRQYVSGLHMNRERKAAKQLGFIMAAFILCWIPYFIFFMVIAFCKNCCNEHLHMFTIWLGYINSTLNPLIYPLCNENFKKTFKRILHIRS
Assay: NanoBRET saturation binding assay on Nluc-H1R expressing HEK293T cells
Set-up: expressed in transfected cells
Conditions: saturation binding curves, whole HEK293T cells; for pKD: non-specific with 10 μM mepyramine, mean ± SEM
Text: Total and non-specific saturation binding curves from NanoBRET saturation binding assay were fitted simultaneously using eq 1: [drawing 4] 1 where Bmax is the maximal specific binding, [B] is the concentration of fluorescent ligand in nM, KD is the equilibrium dissociation constant in nM, M is the slope of the non-specific component, and C is the intercept with the Y axis.

Compound	Kd [µM]	pKD
CC(C)[C@H](NC(=O)CCN1CCC(Oc2ccccc2Cc2ccccc2)CC1)C(=O)N[C@@H](CCC(=O)O)C(=O)N[C@@H](CC(N)=O)C(=O)N[C@@H](Cn1cc(COc2ccc(/C=C/C3=[N+]4C(=Cc5ccc(-c6cccs6)n5[B-]4(F)F)C=C3)cc2)nn1)C(N)=O [Compound 22c, (S)-5-(((S)-4-Amino-1-(((S)-1-amino-3-(4-((4-((E)-2-(5,5-difluoro-7-(thiophen-2-yl)-5H-5λ^4,6λ^4-dipyrrolo[1,2-c:2’,1’-f][1,3,2]diazaborinin-3-yl)vinyl)phenoxy)methyl)-1H-1,2,3-triazol-1-yl)-1-oxopropan-2-yl)amino)-1,4-dioxobutan-2-yl)amino)-4-((S)-2-(3-(4-(2-benzylphenoxy)piperidin-1-yl)propanamido)-3-methylbutanamido)-5-oxopentanoic Acid]	0.162	6.79 ± 0.04
CC(C)[C@H](NC(=O)CCN1CCC(Oc2ccccc2Cc2ccccc2)CC1)C(=O)N[C@@H](CO)C(=O)N[C@@H](CC(N)=O)C(=O)NCCC(=O)N[C@@H](CCCn1cc(COc2ccc(/C=C/C3=[N+]4C(=Cc5ccc(-c6cccs6)n5[B-]4(F)F)C=C3)cc2)nn1)C(N)=O [Compound 28a, (S)-N1-(3-(((S)-1-Amino-5-(4-((4-((E)-2-(5,5-difluoro-7-(thiophen-2-yl)-5H-5λ^4,6λ^4-dipyrrolo[1,2-c:2’,1’-f][1,3,2]diazaborinin-3-yl)vinyl)phenoxy)methyl)-1H-1,2,3-triazol-1-yl)-1-oxopentan-2-yl)amino)-3-oxopropyl)-2-((S)-2-((S)-2-(3-(4-(2-benzylphenoxy)piperidin-1-yl)propanamido)-3-methylbutanamido)-3-hydroxypropanamido)succinamide]	0.02	7.70 ± 0.05
C[C@H](NC(=O)CCN1CCC(Oc2ccccc2Cc2ccccc2)CC1)C(=O)N[C@@H](C)C(=O)N[C@@H](C)C(=O)NCCC(=O)N[C@@H](CCCn1cc(COc2ccc(/C=C/C3=[N+]4C(=Cc5ccc(-c6cccs6)n5[B-]4(F)F)C=C3)cc2)nn1)C(N)=O [Compound 28b, (S)-2-((6S,9S,12S)-16-(4-(2-Benzylphenoxy)piperidin-1-yl)-6,9,12-trimethyl-5,8,11,14-tetraoxo-4,7,10,13-tetraazahexadecanamido)-5-(4-((4-((E)-2-(5,5-difluoro-7-(thiophen-2-yl)-5H-5λ^4,6λ^4-dipyrrolo[1,2-c:2’,1’-f][1,3,2]diazaborinin-3-yl)vinyl)phenoxy)methyl)-1H-1,2,3-triazol-1-yl)pentanamide]	0.014	7.86 ± 0.06
CC(C)[C@H](NC(=O)CCN(C)CC/C=C1\c2ccccc2COc2ccccc21)C(=O)N[C@@H](CO)C(=O)N[C@@H](CC(N)=O)C(=O)NCCC(=O)N[C@@H](CCCn1cc(COc2ccc(/C=C/C3=[N+]4C(=Cc5ccc(-c6cccs6)n5[B-]4(F)F)C=C3)cc2)nn1)C(N)=O [Compound 28c, (S)-N1-(3-(((S)-1-Amino-5-(4-((4-((E)-2-(5,5-difluoro-7-(thiophen-2-yl)-5H-5λ^4,6λ^4-dipyrrolo[1,2-c:2’,1’-f][1,3,2]diazaborinin-3-yl)vinyl)phenoxy)methyl)-1H-1,2,3-triazol-1-yl)-1-oxopentan-2-yl)amino)-3-oxopropyl)-2-((S)-2-((S)-2-(3-(((E)-3-(dibenzo[b,e]oxepin-11(6H)-ylidene)propyl)(methyl)amino)propanamido)-3-methylbutanamido)-3-hydroxypropanamido)succinamide]	0.019	7.72 ± 0.11
C[C@H](NC(=O)CCN(C)CC/C=C1\c2ccccc2COc2ccccc21)C(=O)N[C@@H](C)C(=O)N[C@@H](C)C(=O)NCCC(=O)N[C@@H](CCCn1cc(COc2ccc(/C=C/C3=[N+]4C(=Cc5ccc(-c6cccs6)n5[B-]4(F)F)C=C3)cc2)nn1)C(N)=O [Compound 28d]	0.005	8.27 ± 0.05
CC(C)[C@H](NC(=O)CCN1CCC(Oc2ccccc2Cc2ccccc2)CC1)C(=O)N[C@@H](C)C(=O)N[C@@H](CC(N)=O)C(=O)NCCC(=O)N[C@@H](CCCCNC(=O)COc1ccc(/C=C/C2=[N+]3C(=Cc4ccc(-c5cccs5)n4[B-]3(F)F)C=C2)cc1)C(N)=O [Compound 31b, (S)-N1-(3-(((S)-1-Amino-6-(2-(4-((E)-2-(5,5-difluoro-7-(thiophen-2-yl)-5H-5λ^4,6λ^4-dipyrrolo[1,2-c:2’,1’-f][1,3,2]diazaborinin-3-yl)vinyl)phenoxy)acetamido)-1-oxohexan-2-yl)amino)-3-oxopropyl)-2-((S)-2-((S)-2-(3-(4-(2-benz-ylphenoxy)piperidin-1-yl)propanamido)-3-methylbutanamido)propanamido)succinamide] ({Propanoyl(3-Pip(4-O-2-BnPh))}-VAN[βAla]K(X1)-NH2)	0.005	8.34 ± 0.09
C[C@@H](O)[C@H](NC(=O)CCN1CCC(Oc2ccccc2Cc2ccccc2)CC1)C(=O)N[C@@H](CO)C(=O)N[C@@H](CC(N)=O)C(=O)NCCC(=O)N[C@@H](CCCCNC(=O)COc1ccc(/C=C/C2=[N+]3C(=Cc4ccc(-c5cccs5)n4[B-]3(F)F)C=C2)cc1)C(N)=O [Compound 31c, (S)-N1-(3-(((S)-1-Amino-6-(2-(4-((E)-2-(5,5-difluoro-7-(thiophen-2-yl)-5H-5λ^4,6λ^4-dipyrrolo[1,2-c:2’,1’-f][1,3,2]diazaborinin-3-yl)vinyl)phenoxy)acetamido)-1-oxohexan-2-yl)amino)-3-oxopropyl)-2-((S)-2-((2S,3R)-2-(3-(4-(2-benzylphenoxy)piperidin-1-yl)propanamido)-3-hydroxy-butanamido)-3-hydroxypropanamido)succinamide] ({Propanoyl(3-Pip(4-O-2-BnPh))}-TSN[βAla]K(X1)-NH2)	0.006	8.20 ± 0.07
C[C@H](NC(=O)[C@@H](NC(=O)CCN1CCC(Oc2ccccc2Cc2ccccc2)CC1)[C@@H](C)O)C(=O)N[C@@H](CC(N)=O)C(=O)NCCC(=O)N[C@@H](CCCCNC(=O)COc1ccc(/C=C/C2=[N+]3C(=Cc4ccc(-c5cccs5)n4[B-]3(F)F)C=C2)cc1)C(N)=O [Compound 31d, (S)-N1-(3-(((S)-1-Amino-6-(2-(4-((E)-2-(5,5-difluoro-7-(thiophen-2-yl)-5H-5λ^4,6λ^4-dipyrrolo[1,2-c:2’,1’-f][1,3,2]diazaborinin-3-yl)vinyl)phenoxy)acetamido)-1-oxohexan-2-yl)amino)-3-oxopropyl)-2-((S)-2-((2S,3R)-2-(3-(4-(2-benzylphenoxy)piperidin-1-yl)propanamido)-3-hydroxybutanamido)propanamido)succinamide] ({Propanoyl(3-Pip(4-O-2-BnPh))}-TAN[βAla]K(X1)-NH2)	0.005	8.29 ± 0.07
CC(C)[C@H](NC(=O)CCN1CCC(Oc2ccccc2Cc2ccccc2)CC1)C(=O)N[C@@H](CO)C(=O)N[C@@H](Cc1ccc(O)cc1)C(=O)NCCC(=O)N[C@@H](CCCCNC(=O)COc1ccc(/C=C/C2=[N+]3C(=Cc4ccc(-c5cccs5)n4[B-]3(F)F)C=C2)cc1)C(N)=O [Compound 31e, (S)-2-((6S,9S,12S)-16-(4-(2-Benzylphenoxy)piperidin-1-yl)-6-(4-hydroxybenzyl)-9-(hydroxymethyl)-12-isopropyl-5,8,11,14-tetraoxo-4,7,10,13-tetraazahexadecanamido)-6-(2-(4-((E)-2-(5,5-difluoro-7-(thiophen-2-yl)-5H-5λ^4,6λ^4-dipyrrolo[1,2-c:2’,1’-f][1,3,2]diazaborinin-3-yl)vinyl)phenoxy)acetamido)hexanamide] ({Propanoyl(3-Pip(4-O-2-BnPh))}-VSY[βAla]K(X1)-NH2)	0.016	7.80 ± 0.11
